In patent US9648880B2, “Antifungal agents and uses thereof” (University of Massachusetts, priority 2012, dated 2017):
pIC50: −log10 of the molar value.

Experiments:
C. albicans SC5314-GFP = experiment: GFP-based adhesion assay; type: cell-based; settings: Candida albicans, SC5314, read-out: IC50 in the GFP-based adhesion assay
Procedure: To do this, we measured adhesion of cells plated and washed as before, but here using a C. albicans strain encoding GFP. This allowed us to measure adhesion both in a fluorescence plate reader and by microscopy (FIGS. 1D and 1E). Indeed, these GFP-based assays confirmed that all the compounds effective at 25 μM in the alamarBlue-based assay impair C. albicans adhesion to polystyrene. We conclude that our chemical screen detected multiple compounds that block adhesion to polystyrene, and that these can be assayed via multiple detection methods.
SC5314-GFP and edt1^−/−-GFP strains were pregrown overnight in SC+0.2% glucose media at 30° C., diluted into fresh SC+0.2% glucose media to a final concentration of 5×10^6 cells/ml (equivalent to 0.5 OD600/ml) and plated onto Immulon 2HB 96-well plates, with each well receiving 0.1 OD of cells. DMSO or compounds resuspended in DMSO were added to the desired final concentration (1% vol/vol of DMSO was maintained). Plates were then incubated for 4 hours at 37° C. […] Fluorescence was measured using a Synergy HT plate reader (BioTek) following addition of […] of PBS/well. For each experiment, untagged SC5314 was analyzed simultaneously to determine background fluorescence that was subtracted from the signal from each well.

[1] = system: C. albicans SC5314 on excised murine vaginal mucosal tissue; experiment: ex vivo mouse vaginal mucosal infection (VVC); settings: 24 h
Procedure: FIG. 6A-6B. Effects on metazoan hosts. FIG. 6A is a graph showing the lifespan of C. elegans exposed to C. albicans treated with 12.5 μM compound #4 (lower graph line) or 12.5 μM fluconazole (upper graph line) compared to untreated (middle graph line). […] FIG. 6B is a series of photographs showing microscopic analysis of ex vivo vaginal mucosal biofilm formation. Mice were administered estrogen and vaginae were harvested. Tissues were either uninfected, or pretreated with DMSO or 50 μM compound #4, and then inoculated with C. albicans SC5314 (10^6 blastoconidia) and incubated for 24 h. Tissues were bisected and processed for scanning electron microscopy (SEM), or confocal microscopy (CM) after staining with Calcofluor to detect yeast (blue) and Concavalin A to visualize extracellular matrix (red). SEM images were taken at 1000× magnification, and CM images at 600× magnification.
In this assay, excised murine vaginal mucosal tissue is tested as a substrate for infection by Candida cells, providing a rapid and simple method for optimizing treatment conditions prior to in vivo infection assays. The other readout in the assay is a measure of the number of viable fungal cells, expressed as colony forming units (CFU).
These ex vivo infections were performed as described (Harriott, 2010).

[2] = system: fluconazole-resistant C. albicans strains; experiment: fluconazole synergy assay; type: cell-based, Candida albicans; settings: 24 hrs, 37° C.; alamarBlue without wash
Procedure: FIGS. 10A-10B. […] Candida strains were identified from AIDS patients (3919, an initial progenitor isolate, and the subsequently isolated 4617 and 4639 strains). These were coincubated in the presence of either compounds #4, #Q1, fluconazole alone or a combination of fluconazole with either #4 or #Q1 for 24 hrs in polystyrene plates at 37° C. Viability was assessed using alamarBlue reagent as described (Youngsaye, supra).
Finally, we tested whether compound #4 would inhibit growth of fluconazole-resistant C. albicans strains in the presence of low levels of fluconazole, because that is the activity described for compound Q1 (Youngsaye supra). To measure cell viability rather than adhesion, we performed alamarBlue-based viability measurements without wash steps, using fluconazole-resistant C. albicans strains obtained from an AIDS patient who had been treated with fluconazole for oral candidaisis (Bachmann, 2002).
Assays to test for synergies between compound #4 and fluconazole were performed as described (Youngsaye, 2011, supra), except we used a 96-well rather than a 384-well format. […] At the end of 24 hours of incubation, viability was evaluated without washing steps, using alamarBlue as previously described (Youngsaye, 2011, supra).

[3] = system: C. albicans constitutively filamentous strains; experiment: hyphal development induced by multiple signals (mutant strains, GlcNAc, hydroxyurea); type: cell-based, Candida albicans; parameters: genotoxic stress-induced filamentation: dose or concentration left out as unconfirmed
Procedure: FIGS. 30A-30E. Compound #4 inhibits hyphal development induced by multiple signals. FIG. 30A is a schematic diagram of some of the signaling pathways that govern hyphal gene expression. For simplicity, only those genes investigated in this figure are shown. FIG. 30B is a series of photomicrographs showing the effects of compound #4 on constitutively filamentous mutant strains in the cAMP-PKA pathway. Wild-type SC5314, efg1-T206E, ras1-G13V, and ADH1pr-gpa2-Q355L cells were grown in the presence of 1% DMSO or 50 μM compound #4 in Spider medium at 37° C. for 4 hrs, stained with Calcofluor white and photographed using DIC or fluorescent microscopy (20× objective). FIG. 30C is a series of two photomicrographs showing that Compound #4 blocks filamentation induced by GlcNAc or constitutive overexpression of the GlcNac-activated transcription factor Cph1. Images obtained as in FIG. 30B. […] SC5314 cells grown in YPD at 30° C. in the presence of 50 mM hydroxyurea (HU) in combination with either 1% DMSO or […]. Images obtained as in FIG. 30B. FIG. 30E is a series of photomicrographs showing that Compound #4 inhibits the hyperfilamentous growth of a strain that constitutively overexpresses the Gpr1 protein. Colonies were grown on solid Spider media agar overlayed with either 1% DMSO or 50 μM #4 and incubated at 37° C. for 3 days. Colony edges were imaged with a 10× objective.
To explore the mechanism of compound #4 action, we tested whether compound #4 would alter hyphal induction in mutants that hyperactivate the filamentation process. For example, hyphal induction by Spider media requires the cyclic AMP-protein kinase A (cAMP-PKA) pathway; FIG. 30A. Stimulation of this pathway drives PKA to phosphorylate transcription factor Efg1, activating Efg1 to increase expression of genes required for hyphal morphogenesis.
For example, the modified sugar N-acetyl-glucosamine (GlcNac) also stimulates hyphal morphogenesis, but does so independently of the cAMP-PKA pathway, instead activating the transcription factor Cph1.
In addition to nutrient-mediated signals, genotoxic stress promotes hyphal morphogenesis in C. albicans, and the DNA damage signaling kinase Rad53 is required for the hyphal transition.

[4] = system: C. albicans hyphae formation; experiment: filamentation assay (hyphal morphogenesis); type: cell-based, Candida albicans; settings: 50 μM overlay; 37° C., 2 days

SMILES: Cc1ccc(C(=O)N2CCN(c3ccc([N+](=O)[O-])cc3)CC2)cc1Cl [Compound 4]
- pIC50 (C. albicans SC5314-GFP): ~5.52
- CFU recovered ([1]; 50 μM pretreatment): did not observe significant differences
- extracellular matrix (Concavalin A staining) ([1]; 50 μM): still formed a carbohydrate-rich extracellular matrix
- hyphae formation or ECM production ([1]; 50 μM): only partially inhibits hyphae formation or ECM production
- viability/growth of fluconazole-resistant strains, alone or with low fluconazole [2]: did not affect fluconazole-resistant C. albicans viability, whether alone or in the presence of fluconazole
- hyphae driven by GlcNac-containing media or overexpression of Cph1 [3]: also inhibits formation of hyphae in these cases
- morphology of hyperfilamentous cAMP-PKA pathway mutants (ras1-G13V, gpa2-Q355L, efg1-T206E) ([3]; 50 μM, Spider medium 37° C., 4 hrs): retained a planktonic, budded morphology
- hyphal morphogenesis of cells overexpressing Gpr1 ([3]; 50 μM, solid Spider media, 37° C., 3 days): blocked hyphal morphogenesis in these cells
- genotoxic stress-induced filamentation ([3]; YPD 30° C.): form hyphae regardless of the presence of compound #4
- wrinkled colony morphology on solid Spider media [4]: abolished
